Assay results: US6544727B1, “Methods and devices for the removal of psoralens from blood products” (Cerus Corporation, priority 1995, dated 2003)
“And” between values parts separate entries of the source, which are not always exact repeats. Equal entries are not always repeated. “Also recorded” adds a separate entry of the source. Where two headings read alike, the source gives them in different places.

How the values were obtained:
[1] = system: Salmonella typhimurium tester strains; experiment: Ames Salmonella dark mutagenicity test, overall assessment; type: cell-based; details: two-fold or greater increase in revertants above background and dose dependence
Procedure: A brief description for each procedure is given here. […] TA97a, TA98, TA1537 and TA1538 are frameshift tester strains. TA100 and TA102 are base-substitution tester strains.
This served as the background controls.
For all experiments, the pre-incubation procedure was used.

[2] = system: Salmonella tester strain TA98; experiment: Ames test, strain TA98
Procedure: (§1) In this example the compounds of the present invention are tested for their dark mutagenicity using an Ames assay. The procedures used for the Salmonella mutagenicity test as described in detail by Maron and Ames were followed exactly. Maron, D. M. and B. N. Ames, Mutation Research 113: 173 ( 1983). A brief description for each procedure is given here. The tester strains TA97a, TA98, TA100, TA102, TA1537 and TA1538 were obtained from Dr. Ames. TA97a, TA98, TA1537 and TA1538 are frameshift tester strains. TA100 and TA102 are base-substitution tester strains. Upon receipt each strain was cultured under a variety of conditions to confirm the genotypes specific to the strains.
(§2) The first tests done with the strains were to determine the range of spontaneous reversion for each of the strains. With each mutagenicity experiment the spontaneous reversion of the tester strains to histidine independence was measured and expressed as the number of spontaneous revertants per plate. This served as the background controls.
For all experiments, the pre-incubation procedure was used. In this procedure one vial of each tester strain was thawed and 20 μL of this culture was added to 6 mL of Oxoid Nutrient Broth #2. This solution was allowed to shake for 10 hours at 37° C. In the pre-incubation procedure, 0.1 mL of this overnight culture was added to each of the required number of sterile test tubes. To half of the tubes 0.5 mL of a 10% S-9 solution containing Aroclor 1254 induced rat liver extract (Molecular Toxicology Inc., Annapolis, Md.), and MgCl2, KCl, glucose-6-phosphate, NADP, and sodium phosphate buffer (Sigma, St. Louis, Mo.) were added. To the other half of the tubes 0.5 mL of 0.2M sodium phospate buffer, pH 7.4, was used in place of the S-9 mixture (the—S9samples). […] The 0.7 mL mixture was vortexed and then pre-incubated while shaking for 20 minutes at 37° C. After shaking, 2 mL of molten top agar supplemented with histidine and biotin were added to the 0.7 mL mixture and immediately poured onto a minimal glucose agar plate (volume of base agar was 20 mL). The top agar was allowed 30 minutes to solidify and then the plates were inverted and incubated for 44 hours at 37° C. After incubation the number of revertant colonies on each plate were counted. […] (“n” represents the number of replicates performed for each data point.)

[3] = system: Salmonella tester strain TA1537; experiment: Ames test, strain TA1537
Procedure: as §1, §2
(§3) For all experiments, the pre-incubation procedure was used. In this procedure one vial of each tester strain was thawed and 20 μL of this culture was added to 6 mL of Oxoid Nutrient Broth #2. This solution was allowed to shake for 10 hours at 37° C. In the pre-incubation procedure, 0.1 mL of this overnight culture was added to each of the required number of sterile test tubes. To half of the tubes 0.5 mL of a 10% S-9 solution containing Aroclor 1254 induced rat liver extract (Molecular Toxicology Inc., Annapolis, Md.), and MgCl2, KCl, glucose-6-phosphate, NADP, and sodium phosphate buffer (Sigma, St. Louis, Mo.) were added. To the other half of the tubes 0.5 mL of 0.2M sodium phospate buffer, pH 7.4, was used in place of the S-9 mixture (the—S9samples). Finally 0.1 mL of the test solution containing either 0, 0.1, 0.5, 1, 5, 10, 50, 100, 250, or 500 μg/mL of the test compound was added. The 0.7 mL mixture was vortexed and then pre-incubated while shaking for 20 minutes at 37° C. After shaking, 2 mL of molten top agar supplemented with histidine and biotin were added to the 0.7 mL mixture and immediately poured onto a minimal glucose agar plate (volume of base agar was 20 mL). The top agar was allowed 30 minutes to solidify and then the plates were inverted and incubated for 44 hours at 37° C. After incubation the number of revertant colonies on each plate were counted. […] (“n” represents the number of replicates performed for each data point.)

platelets = experiment: Platelet count, Sysmex cell counter; type: cell-based, human; details: 100 μM compound, 5 Joules/cm^2, Day 5; FIGS. 21A-24A
Procedure: Samples were diluted 1:3 in blood bank saline.

HIV-1 = details: for HIV Log Kill: 1 minute irradiation
Procedure: As in the R17 assay, small aliquots of the compounds listed in TABLES 10 and 11, below, at the concentrations listed in the table, were added to stock HIV-1 to a total of 0.5 mL. The stock HIV (10^5−10^7 plaque forming units/mL) was in DMEM15% FBS. […] Controls included HIV-1 stock only, HIV-1 plus UVA only, and HIV-1 plus the highest concentration of each psoralen tested, with no UVA. Post irradiation, all samples were store frozen at −70° C. until assayed for infectivity by a microtiter plaque assay. Aliquots for measurement of residual HIV infectivity in the samples treated with a compound of the present invention were withdrawn and cultured.
Residual HIV infectivity was assayed using an MT-2 infectivity assay. […] The assay medium was 85% DMEM (with a high glucose concentration) containing 100 μg of streptomycin, 100 U of penicillin, 50 μg of gentamicin, and 1 μg of amphotericin B per mL, 15% FBS and 2 μg of Polybrene (Sigma Chemical Co., St. Louis, Mo.) per mL. Test and control samples from the inactivation procedure were diluted in 50% assay medium and 50% normal human pooled plasma The samples were serially diluted directly in 96-well plates (Corning Glass Works, Corning, N.Y.). The plates were mixed on an oscillatory shaker for 30 seconds and incubated at 37° C. in a 5% CO2 atmosphere for 1 to 18 hours. […] After an additional 1 hour of incubation at 37° C. in 5% CO2, 0.075 mL of assay medium containing 1.6% SeaPlaque agarose (FMC Bioproducts, Rockland, Me.) and prewarmed to 38.5° C. was added to each well. The plates were kept at 37° C. for a few minutes until several plates had accumulated and then centrifuged in plate carriers at 600×g for 20 minutes in a centrifuge precooled to 10° C. In the centrifuge, cell monolayers formed prior to gelling of the agarose layer. The plates were incubated for 5 days at 37° C. in 5% CO2 and stained by the addition of 0.05 mL of 50 μg/mL propidium iodide (Sigma Chemical Co.) in phosphate-buffered saline (pH 7.4) to each well. After 24 to 48 hours, the red fluorescence-stained microplaques were visualized by placing the plates on an 8,000 μW/cm^2304 nm UV light box (Fotodyne, Inc., New Berlin, Wis.). The plaques were counted at a magnification of x20 to x25 through a stereomicroscope.

[4] = system: Duck Hepatitis B Virus (DHBV); experiment: Inactivation of Duck Hepatitis B Virus in platelet concentrate, read by PCR amplification; type: biochemical; details: 5 J/cm^2 UVA
Procedure: DHBV in duck yolk was added to platelet concentrate (PC) to a final concentration of 2×10^7 particles per mL and mixed by gentle rocking for ≧15 min. […] Samples, including controls without added psoralen, were irradiated with 5 J/cm^2 UVA, with mixing at 1 J/cm^2 increments. After irradiation, leukocytes and platelets were separated from virus by centrifugation. The supernatant containing DHBV was digested overnight with 50 μg/mL proteinase K in a buffer containing 0.5% sodium dodecyl sulphate, 20 mM Tris buffer, pH 8.0, and 5 mM EDTA at 55° C. Samples were extracted with phenol-chloroform and chloroform, followed by ethanol precipitation. Purified DNA was then used in PCR amplification reactions with a starting input of 10^6 DHBV genomes from each sample. […] The amplification was followed by a 7 min incubation at 72° C. to yield full length products. [[…]-^32P] dCTP was added at an amount of […] in order to detect and quantify the resulting products. Products were separated by electrophoresis on denaturing polyacrylamide slab gels and counted. The absence of signal in a given reaction was taken to indicate effective inactivation of DHBV.

[5] = system: Salmonella tester strain TA1538
Procedure: as §1, §2, §3

[6] = 16 μM, starting titer approximately 5 logs (Table 10)

Compound	mutagenic response in the Ames assay (in words) [1]	revertant colonies per plate ([2]; TA98 + S9, 10 μg/plate)	revertant colonies per plate ([2]; TA98 + S9, 50 μg/plate)	revertant colonies per plate ([2]; TA98 + S9, 100 μg/plate)	revertant colonies per plate ([2]; TA98 − S9, 10 μg/plate)	revertant colonies per plate ([2]; TA98 − S9, 50 μg/plate)	revertant colonies per plate ([2]; TA98 − S9, 100 μg/plate)	revertant colonies per plate ([3]; TA1537 + S9, 10 μg/plate)	revertant colonies per plate ([3]; TA1537 + S9, 50 μg/plate)	revertant colonies per plate ([3]; TA1537 + S9, 100 μg/plate)	revertant colonies per plate ([3]; TA1537 − S9, 10 μg/plate)	revertant colonies per plate ([3]; TA1537 − S9, 50 μg/plate)	revertant colonies per plate ([3]; TA1537 − S9, 100 μg/plate)	revertant colonies per plate ([2]; TA98 + S9, 250 μg/plate)	revertant colonies per plate ([2]; TA98 − S9, 250 μg/plate)	revertant colonies per plate ([3]; TA1537 + S9, 250 μg/plate)	revertant colonies per plate ([3]; TA1537 − S9, 250 μg/plate)	HIV Log Kill (HIV-1; [6])	other results
Cc1cc(=O)oc2c(C)c3oc(COCCN)c(C)c3cc12 [Compound 18, 5′-(4-amino-2-oxa)butyl-4,4′,8-trimethylpsoralen]	only a weak response at high concentrations in the presence of S9	8	6	26	21	303	390	8	6	26	21	303	390						revertant colonies per plate ([2]; TA98 + S9, 200 μg/plate): 42; revertant colonies per plate ([2]; TA98 − S9, 200 μg/plate): 225; revertant colonies per plate ([3]; TA1537 + S9, 200 μg/plate): 42; revertant colonies per plate ([3]; TA1537 − S9, 200 μg/plate): 225; platelet count, treated against controls (in words) (platelets): higher platelet count than samples treated with light alone; HIV Log Kill (HIV-1; 16 μM, starting titer approximately 5.4 logs (Table 11)): 1.0 log; HIV Log Kill (HIV-1; 32 μM, starting titer approximately 5.4 logs (Table 11)): 1.0 log; HIV Log Kill (HIV-1; 64 μM, starting titer approximately 5.4 logs (Table 11)): 3.1 log
Cc1oc2c(C)c3oc(=O)cc(C)c3cc2c1COCCN [Compound 2, 4′-(4-amino-2-oxa)butyl-4,5′,8-trimethylpsoralen]	weak frameshift mutagenicity in the presence of S9 in TA98 and TA1537	24	35	53	28	52	39	5	40	88	36	282	258	69	29	744	176	1.4 log	PCR of the 1072 bp DHBV amplicon ([4]; all concentrations (35, 70, and 100 mM as printed), platelet concentrate): complete inhibition of PCR; PCR of the smaller DHBV amplicons (127 bp, 327 bp) compared with AMT ([4]; same concentrations): inhibited PCR of the smaller amplicons better than did AMT; revertant colonies per plate ([5]; TA1538 + S9, 5 μg/plate): 2; revertant colonies per plate ([5]; TA1538 + S9, 10 μg/plate): 4; revertant colonies per plate ([5]; TA1538 − S9, 5 μg/plate): −8; revertant colonies per plate ([5]; TA1538 − S9, 10 μg/plate): −13; revertant colonies per plate ([2]; TA98 + S9, 500 μg/plate): 63; revertant colonies per plate ([2]; TA98 − S9, 500 μg/plate): 6; revertant colonies per plate ([3]; TA1537 + S9, 500 μg/plate): 395; revertant colonies per plate ([3]; TA1537 − S9, 500 μg/plate): 114; HIV Log Kill (HIV-1; 32 μM, starting titer approximately 5 logs (Table 10)): 3.8 log; HIV Log Kill (HIV-1; 64 μM, starting titer approximately 5 logs (Table 10)): >4.5 log; HIV inactivation compared with AMT (in words) (HIV-1; cell-free HIV, 64 μM of compound or higher for compounds 2 and 3): significantly more active than AMT
Cc1oc2c(C)c3oc(=O)cc(C)c3cc2c1CN [AMT, 4′-Aminomethyl-4,5′,8-trimethylpsoralen, reference compound]	showed frameshift mutagenicity at between 5 and 10 μg/plate in TA97a and TA98, at 5 μg/plate in TA1537 and at 1 μg/plate in TA1538; also recorded: no significant base-substitution mutations	403	620	745	20	69	114	30	94	686 and 500	52	2688		933	112	3738	434	1.4 log	PCR of the 1072 bp DHBV amplicon ([4]; 35 mM final concentration (so in the source)): a signal could be detected; PCR of the 1072 bp DHBV amplicon ([4]; 70 and 100 mM levels (so in the source)): inhibited PCR amplification; revertant colonies per plate ([2]; TA98 + S9, 0.1 μg/plate): 1; revertant colonies per plate ([2]; TA98 + S9, 0.5 μg/plate): 3; revertant colonies per plate ([2]; TA98 + S9, 1 μg/plate): 21; revertant colonies per plate ([2]; TA98 + S9, 5 μg/plate): 232; revertant colonies per plate ([2]; TA98 − S9, 0.1 μg/plate): 3; revertant colonies per plate ([2]; TA98 − S9, 0.5 μg/plate): 5; revertant colonies per plate ([2]; TA98 − S9, 1 μg/plate): 5; revertant colonies per plate ([2]; TA98 − S9, 5 μg/plate): 16; revertant colonies per plate ([3]; TA1537 + S9, 0.1 μg/plate): 2; revertant colonies per plate ([3]; TA1537 + S9, 0.5 μg/plate): 2; revertant colonies per plate ([3]; TA1537 + S9, 1 μg/plate): 3; revertant colonies per plate ([3]; TA1537 + S9, 5 μg/plate): 22; revertant colonies per plate ([3]; TA1537 − S9, 0.1 μg/plate): 0; revertant colonies per plate ([3]; TA1537 − S9, 0.5 μg/plate): 3; revertant colonies per plate ([3]; TA1537 − S9, 1 μg/plate): 5; revertant colonies per plate ([3]; TA1537 − S9, 5 μg/plate): 44
